Data as given in patent publication US20260334439A1, “BCAT2 INHIBITORS” (Agios Pharmaceuticals, Inc., priority 2023, published 2026).

Experiments:
BCAT2 [1] = biological target: T1, BCAT2 (Homo sapiens, UniProt O15382); test: BCAT2 in vitro enzyme inhibition assay (hBCAT2, glutamate dehydrogenase/diaphorase/resazurin coupled fluorescence read); assay type: biochemical; conditions: hBCAT2, 1 h preincubation at 25° C., one hour reaction; average where tested multiple times
T1 sequence (O15382 28-392): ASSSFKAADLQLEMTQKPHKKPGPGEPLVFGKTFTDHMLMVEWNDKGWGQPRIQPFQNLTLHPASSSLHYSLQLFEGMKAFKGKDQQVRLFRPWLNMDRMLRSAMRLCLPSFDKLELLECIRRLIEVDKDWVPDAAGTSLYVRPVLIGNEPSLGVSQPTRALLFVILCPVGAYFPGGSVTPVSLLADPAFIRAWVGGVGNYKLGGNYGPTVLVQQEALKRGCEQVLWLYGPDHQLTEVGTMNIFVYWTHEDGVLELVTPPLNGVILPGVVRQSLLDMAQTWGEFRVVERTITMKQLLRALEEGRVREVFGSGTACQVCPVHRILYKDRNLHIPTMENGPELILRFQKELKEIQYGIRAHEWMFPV
Outline: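 hBCAT2 (0.33 μg/mL in mix) preincubated 1 h at 25 °C with compound (top 100 μM, 3-fold, 10 points) in Tris pH 8.0/NaCl/BSA; substrate mix added (L-leucine, α-ketoglutarate, GDH, NAD, diaphorase, resazurin), quenched with SDS after 1 h, fluorescence Ex 540/Em 590; duplicates, repeat tests averaged.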

BCAT2 [2] = biological target: T1, BCAT2; test: BCAT2 cell inhibition using engineered A549 cells (MUT KO, BCAT1 KO; 13C6-KMV formation by LC-MS/MS); assay type: cell-based; set-up: expressed endogenous BCAT2; endogenous in cells; host or cells: A549 cells, MUT knockout and BCAT1 knockout
Outline: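 Medium 13C6-KMV formation is read by LC-MS/MS after PFBHA derivatization with d8-KMV internal standard. Cells are CRISPR MUT/BCAT1 double-knockout A549 expressing endogenous BCAT2, given compound 15 min before labelled isoleucine (800 uM, added 1:1) for 24 h. CTG viability run in parallel; replicates averaged.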

[3] = read-out: BCAT2 Cell Inhibition (IC50), engineered A549 cells, 24 hours, 13C6-KMV in media, average where tested multiple times

IC50 (BCAT2 [1]) [nM] | IC50 (BCAT2 [2]) [nM] | IC50 (BCAT2 [2]; [3]) [nM] | SMILES
< 100 | < 100 | – | O=C1c2cc(Cl)ccc2NCN1[C@H]1CCC[C@@H](n2c(-c3ccccc3F)nc3cnc(-c4nc[nH]n4)cc32)C1 [Example 206, 6-chloro-3-((1S,3R)-3-(2-(2-fluorophenyl)-6-(1H-1,2,4-triazol-3-yl)-1H-imidazo[4,5-c]pyridin-1-yl)cyclohexyl)-2,3-dihydroquinazolin-4(1H)-one]
< 100 | < 100 | – | O=C1c2cc(Cl)ccc2OCN1[C@H]1CCC[C@@H](n2c(-c3ccccc3F)nc3cnc(-c4nc[nH]n4)cc32)[C@@H]1O [Example 213, 6-chloro-3-((1S,2S,3R)-3-(2-(2-fluorophenyl)-6-(1H-1,2,4-triazol-3-yl)-1H-imidazo[4,5-c]pyridin-1-yl)-2-hydroxycyclohexyl)-2,3-dihydro-4H-benzo[e][1,3]oxazin-4-one]
< 100 | < 100 | – | O=C1c2cc(Cl)ccc2OCN1[C@H]1CCC[C@@H](n2c(-c3ccccc3F)nc3cnc(-n4nccn4)cc32)[C@@H]1O [Example 214, 6-chloro-3-((1S,2S,3R)-3-(2-(2-fluorophenyl)-6-(2H-1,2,3-triazol-2-yl)-1H-imidazo[4,5-c]pyridin-1-yl)-2-hydroxycyclohexyl)-2,3-dihydro-4H-benzo[e][1,3]oxazin-4-one]
< 100 | < 100 | – | O=C1c2cc(Cl)ccc2OCN1[C@H]1CCC[C@@H](n2c(-c3ccccc3F)nc3cnc(-c4ncco4)cc32)[C@@H]1O [Example 215, 6-chloro-3-((1S,2S,3R)-3-(2-(2-fluorophenyl)-6-(oxazol-2-yl)-1H-imidazo[4,5-c]pyridin-1-yl)-2-hydroxycyclohexyl)-2,3-dihydro-4H-benzo[e][1,3]oxazin-4-one]
< 100 | – | > 1000 | COc1ccc(Cl)cc1C(=O)N[C@H]1CCC[C@@H](n2c(-c3ccccc3F)nc3ccc(-c4nc[nH]n4)cc32)[C@@H]1O [Example 217, 5-chloro-N-((1S,2R,3R)-3-(2-(2-fluorophenyl)-6-(1H-1,2,4-triazol-3-yl)-1H-benzo[d]imidazol-1-yl)-2-hydroxycyclo-hexyl)-2-methoxybenzamide]
< 100 | 100 to 500 | – | O=C(N[C@H]1CCC[C@@H](n2c(-c3ccccc3F)nc3ccc(-c4nc[nH]n4)cc32)[C@@H]1O)c1cc(Cl)ccn1 [Example 218, 4-chloro-N-((1S,2R,3R)-3-(2-(2-fluorophenyl)-6-(1H-1,2,4-triazol-3-yl)-1H-benzo[d]imid-azol-1-yl)-2-hydroxycyclohex-yl)picolinamide]
< 100 | – | > 1000 | CO[C@H]1C[C@H](NC(=O)c2cc(F)ccn2)C[C@H](n2c(-c3ccccc3F)nc3ccc(-c4nc[nH]n4)cc32)C1 [Example 221, 4-fluoro-N-((1S,3R,5R)-3-(2-(2-fluorophenyl)-6-(1H-1,2,4-triazol-3-yl)-1H-benzo[d]imid-azol-1-yl)-5-methoxycyclohex-yl)picolinamide]
< 100 | 100 to 500 | – | O=C(N[C@H]1CCC[C@@H](n2c(-c3ccccc3F)nc3ccc(-c4nc[nH]n4)cc32)C1)c1cc(F)ccn1 [Example 226, 4-fluoro-N-((1S,3R)-3-(2-(2-fluorophenyl)-6-(1H-1,2,4-triazol-3-yl)-1H-benzo[d]imid-azol-1-yl)cyclohexyl)picolin-amide]
< 100 | 100 to 500 | – | O=C(N[C@H]1CCC[C@@H](n2c(-c3c(O)cccc3F)nc3ccc(-c4nc[nH]n4)cc32)C1)c1cc(Cl)ccn1 [Example 227, 4-chloro-N-((1S,3R)-3-(2-(2-fluoro-6-hydroxyphenyl)-6-(1H-1,2,4-triazol-3-yl)-1H-benzo[d]imidazol-1-l)cyclohexyl)picolin-amide]
< 100 | < 100 | – | O=C(N[C@H]1CCC[C@@H](n2c(-c3ccccc3F)nc3ccc(-c4nc[nH]n4)c(F)c32)C1)c1cc(Cl)ccn1 [Example 230, 4-chloro-N-((1S,3R)-3-(7-fluoro-2-(2-fluorophenyl)-6-(1H-1,2,4-triazol-3-yl)-1H-benzo[d]imidazol-1-yl)cyclohexyl)picolinamide]
< 100 | < 100 | – | O=C(N[C@H]1CCC[C@@H](n2c(-c3ccccc3OC(F)F)nc3cnc(-c4nc[nH]n4)cc32)C1)c1cc(Cl)ccc1O [compound 69]
< 100 | < 100 | – | O=C(N[C@H]1CCC[C@@H](n2c(-c3ccccc3OC(F)F)nc3cnc(-c4nc[nH]n4)cc32)C1)c1cc(Cl)ccc1OCCO [compound 73]
< 100 | < 100 | – | O=C(N[C@H]1CCC[C@@H](n2c(-c3ccccc3F)nc3cnc(-c4ncn(C(F)F)n4)cc32)[C@@H]1O)c1cc(Cl)ccn1 [compound 118]
< 100 | 100 to 500 | – | O=C1c2cc(F)ccc2CN1[C@H]1CCC[C@@H](n2c(-c3ccccc3OC(F)F)nc3cnc(-c4nc[nH]n4)cc32)[C@@H]1O [compound 188]

The next lines start with the compound.

SMILES | IC50 (BCAT2 [1]) [nM] | IC50 (BCAT2 [2]) [nM] | IC50 (BCAT2 [2]; [3]) [nM]
O=C1c2cc(F)ccc2NCN1[C@H]1CCC[C@@H](n2c(-c3ccccc3F)nc3cnc(-c4nc[nH]n4)cc32)C1 [Example 208, 6-fluoro-3-((1S,3R)-3-(2-(2-fluorophenyl)-6-(1H-1,2,4-triazol-3-yl)-1H-imidazo[4,5-c]pyridin-1-yl)cyclohexyl)-2,3-dihydroquinazolin-4(1H)-one] | < 100 | < 100 | –
O=c1c2cc(F)ccc2ncn1[C@H]1CCC[C@@H](n2c(-c3ccccc3F)nc3cnc(-c4nc[nH]n4)cc32)C1 [Example 209, 6-fluoro-3-((1S,3R)-3-(2-(2-fluorophenyl)-6-(1H-1,2,4-triazol-3-yl)-1H-imidazo[4,5-c]pyridin-1-yl)cyclohexyl)quinazolin-4(3H)-one] | < 100 | < 100 | –
O=C1c2cc(F)ccc2CCN1[C@H]1CCC[C@@H](n2c(-c3ccccc3F)nc3cnc(-c4nc[nH]n4)cc32)C1 [Example 212, 7-fluoro-2-((1S,3R)-3-(2-(2-fluorophenyl)-6-(1H-1,2,4-triazol-3-yl)-1H-imidazo[4,5-c]pyridin-1-yl)cyclohexyl)-3,4-dihydroisoquinolin-1(2H)-one] | < 100 | < 100 | –
CC(C)Cc1nc2ccc(-c3ncccn3)cc2n1[C@@H]1CCC[C@H](NC(=O)c2cc(Cl)ccn2)[C@H]1O [Example 219, 4-chloro-N-((1S,2R,3R)-2-hydroxy-3-(2-isobutyl-6-(pyrim-idin-2-yl)-1H-benzo[d]imidazol-1-yl)cyclohexyl)picolinamide] | < 100 | 100 to 500 | –
N#Cc1ccccc1-c1nc2ccc(-c3ncccn3)cc2n1[C@@H]1CCC[C@H](N2Cc3ccc(F)cc3C2=O)C1 [Example 239, 2-(1-((1R,3S)-3-(6-fluoro-1-oxoisoindolin-2-yl)cyclohexyl)-6-(pyrimidin-2-yl)-1H-benzo[d]imidazol-2-yl)benzonitrile] | < 100 | < 100 | –
CO[C@H]1C[C@H](N2Cc3ccc(F)cc3C2=O)C[C@H](n2c(-c3ccccc3OCCO)nc3ccc(-c4ncco4)cc32)C1 [Example 241, 6-fluoro-2-((1R,3S,5R)-3-(2-(2-(2-hydroxyethoxy)phenyl)-6-(oxazol-2-yl)-1H-benzo[d]imid-azol-1-yl)-5-methoxycyclohex-yl)isoindolin-1-one] | < 100 | 100 to 500 | –
CN1C[C@H](N2Cc3ccc(F)cc3C2=O)C[C@H](n2c(-c3ccccc3OCCO)nc3ccc(-c4ncccn4)cc32)C1 [Example 243, 6-fluoro-2-((3R,5S)-5-(2-(2-(2-hydroxyethoxy)phenyl)-6-(pyrimidin-2-yl)-1H-benzo[d]imidazol-1-yl)-1-methylpiper-idin-3-yl)isoindolin-1-one] | < 100 | 100 to 500 | –
O=C(N[C@H]1CCC[C@@H](n2c(-c3ccccc3OC(F)F)nc3cnc(-c4nc[nH]n4)cc32)C1)c1cc(F)ccn1 [compound 30] | < 100 | < 100 | –
O=C(N[C@H]1CCC[C@@H](n2c(-c3ccccc3F)nc3cnc(-c4nc[nH]n4)cc32)C1)c1cc(C(F)F)ccn1 [compound 100] | < 100 | < 100 | –
CN1C[C@H](NC(=O)c2cc(F)ccn2)C[C@H](n2c(-c3ccccc3OC(F)F)nc3cnc(-c4nc[nH]n4)cc32)C1 [compound 139] | < 100 | < 100 | –
CN1C[C@H](NC(=O)c2cc(Cl)ccn2)C[C@H](n2c(-c3ccccc3OC(F)F)nc3cnc(-c4nc[nH]n4)cc32)C1 [compound 141] | < 100 | < 100 | –
O=C1c2cc(F)ccc2CN1[C@H]1CCC[C@@H](n2c(-c3ccccc3OC(F)F)nc3cnc(-c4nc[nH]n4)cc32)C1 [compound 180] | < 100 | < 100 | –
O=C1c2cc(F)ccc2CN1[C@H]1CCC[C@@H](n2c(-c3c(F)cccc3OC(F)F)nc3cnc(-c4nc[nH]n4)cc32)[C@@H]1O [compound 189] | < 100 | < 100 | –
O=C1c2cc(Cl)ccc2OCN1[C@H]1CCC[C@@H](n2c(-c3ccccc3OC(F)F)nc3cnc(-c4nc[nH]n4)cc32)C1 [compound 205] | < 100 | < 100 | –
